{"source": "paper PMC4021065", "about": "“A novel, non-radioactive eukaryotic in vitro transcription assay for sensitive quantification of RNA polymerase II activity” (BMC Molecular Biology, 2014)", "key": {"RNA polymerase II [1]": {"target": "T1, RNA polymerase II (Homo sapiens, UniProt P24928)", "T1 construct": "a well-defined nuclear extract providing the RNA polymerase II and a basal set of transcription factors; purchased Promega; host or cells: HeLa cell nuclear extract (endogenous enzyme)", "assay_type": "biochemical", "details": "for IC50: qPCR, read-out: IC50 (RNA synthesis)"}, "RNA polymerase II [2]": {"tested_on": "RNA polymerase II", "details": "cited from earlier work"}, "RNA polymerase II [3]": {"target": "T1, RNA polymerase II", "assay": "In vitro transcription (HeLaScribe nuclear extract) with primer extension and PCR gel detection", "assay_type": "biochemical", "method": "Transcription reactions were set up as using the Promega HeLaScribe Nuclear Extract in vitro Transcription System were set up as described by the manufacturer with some modifications. The reaction volume was doubled to 50 μl. A master mix was prepared from a volume transcription buffer (20 mM HEPES, pH 7.9, 100 mM KCl, 0.2 mM EDTA, 0.5 mM DTT, 20% glycerol) corresponding to 22 μl minus the nuclear extract volume, MgCl2 to a final concentration of 3 mM, 40 Units RNase inhibitor, DNA template (1 μg pEGFP-N1 plasmid or 150 ng linear DNA fragment CMV-EGFP, respectively) and the nuclear extract following the manufacturer’s recipe. Aliquots of the master mix were transferred into reaction tubes containing different α-amanitin concentrations or water and incubated for 20 min at room temperature. Standard transcription reactions containing no α-amanitin were referred as ‘positive’, reactions containing α-amanitin or other inhibitors as ’inhibited’. A standard reaction containing no α-amanitin/inhibitors but also no NTPs was used as a ‘negative control transcription’. […]\nThe purified RNA was once more DNase-treated using the Epicentre BaselineZero DNase kit as recommended by the manufacturer, 8.8 μl of the RNA being digested in a final volume of 10 μl. […] After amplification, the products were analyzed by gel electrophoresis onto 1.5% agarose."}, "RNA polymerase II [4]": {"target": "T1, RNA polymerase II", "assay": "biochemical", "details": "for IC50: QuantiGene, read-out: IC50 (RNA synthesis)"}, "RNA polymerase II [5]": {"target": "T1, RNA polymerase II", "assay": "In vitro transcription with primer extension and qPCR (EGFP-LNA1 probe) detection, pEGFP-N1 / CMV-EGFP templates", "assay_type": "biochemical", "method": "Transcription reactions were set up as using the Promega HeLaScribe Nuclear Extract in vitro Transcription System were set up as described by the manufacturer with some modifications. The reaction volume was doubled to 50 μl. A master mix was prepared from a volume transcription buffer (20 mM HEPES, pH 7.9, 100 mM KCl, 0.2 mM EDTA, 0.5 mM DTT, 20% glycerol) corresponding to 22 μl minus the nuclear extract volume, MgCl2 to a final concentration of 3 mM, 40 Units RNase inhibitor, DNA template (1 μg pEGFP-N1 plasmid or 150 ng linear DNA fragment CMV-EGFP, respectively) and the nuclear extract following the manufacturer’s recipe. Aliquots of the master mix were transferred into reaction tubes containing different α-amanitin concentrations or water and incubated for 20 min at room temperature. Standard transcription reactions containing no α-amanitin were referred as ‘positive’, reactions containing α-amanitin or other inhibitors as ’inhibited’. A standard reaction containing no α-amanitin/inhibitors but also no NTPs was used as a ‘negative control transcription’. The reactions were started by the addition of the NTP mix to a final concentration of 400 μM each, except for the negative control where water was added. After incubating for 30 min at 30°C, the reactions were stopped by diluting with 400 μl of the RLT buffer from the Qiagen RNeasy Micro kit and stored at −80°C until proceeding with RNeasy cleanup. This was performed as recommended by the manufacturer, including on-column DNase treatment but without the addition of carrier RNA. The RNA was eluted using 15 μl water and stored at −80°C.\nThe purified RNA was once more DNase-treated using the Epicentre BaselineZero DNase kit as recommended by the manufacturer, 8.8 μl of the RNA being digested in a final volume of 10 μl. As a second negative control, 50 ng of the linear DNA fragment CMV-EGFP were directly DNase-digested and further processed as the RNA samples (‘DNase control’). For reverse transcription with the Qiagen Sensiscript RT kit, 2 μl of the digestion reaction and 1 μM EGFPrev1 primer (Table 1) were used in a final reaction volume of 20 μl. After reaction, 1 μl of the reverse transcription mix was transferred to PCR tubes containing 24 μl PCR mix aliquots. The standard PCR amplification was performed using the Epicentre Failsafe PCR system with the Mix A and the EGFPrev1 and EGFPfrw1 (Table 1) primer mix. Positive PCR control reactions contained 50 ng pEGFP-N1 plasmid; negative PCR controls contained no DNA. After amplification, the products were analyzed by gel electrophoresis onto 1.5% agarose.\nFor quantitation using SYBR detection, the Qiagen QuantiFast SYBR green qPCR kit was used. 1 μl of the reverse transcription mix was amplified in 25 μl reaction mix containing 500 nM of each EGFP-rev1 and EGFP-frw1 primer. For quantitation using the sequence-specific LNA probe EGFP-LNA1 at 250 nM, same primer set as well as an alternative primer set (EGFPfrw2 and EGFPrew2, Table 1) at 500 nM each and Sigma Jumpstart Taq ReadyMix for qPCR were used. 2 μl of the reverse transcription reaction were diluted into qPCR reactions with a final volume of 20 μl and qPCR performed in a Bio-Rad DNAEngine lightcycler. A qPCR standard curve was prepared from the CMV-EGFP DNA fragment and used for RNA copy number calculations. The amount of RNA in the inhibited probes was related to the RNA amount detected for the positive transcription reaction."}, "[6]": {"details": "200 nM, template HS-DNA_mut (TATA box mutated)"}}, "note": "Like-named read-outs stand apart in the source and are kept apart here."}
{"smiles": "CN1CC[C@H](c2c(O)cc(O)c3c(=O)cc(-c4ccccc4Cl)oc23)[C@H](O)C1", "note": "[flavopiridol]", "values": [{"measurement": "IC50", "setting": "RNA polymerase II [1]; HS-DNA_long template, 10 min at 30°C, second set of reactions", "result": 940, "unit": "nM"}, {"measurement": "IC50", "setting": "RNA polymerase II [1]; standard HS-DNA template, 30 min at 30°C, first set of reactions", "result": "> 125000", "unit": "nM"}]}
{"smiles": "CCC(C)C1NC(=O)CNC(=O)C2Cc3c([nH]c4cc(OC)ccc34)[S+]([O-])CC(NC(=O)CNC1=O)C(=O)NC(CC(N)=O)C(=O)N1CC(O)CC1C(=O)NC(C(C)C(C)O)C(=O)N2", "note": "(stereo not shown) [6′–O-methyl-γ-amanitin]", "values": [{"measurement": "potency as RNA polymerase II inhibitor relative to α-amanitin (less potent)", "setting": "RNA polymerase II [2]", "result": "about two-fold"}]}
{"smiles": "CC[C@H](C)[C@@H]1NC(=O)CNC(=O)[C@@H]2Cc3c([nH]c4cc(O)ccc34)[S@+]([O-])C[C@H](NC(=O)CNC1=O)C(=O)N[C@@H](CC(N)=O)C(=O)N1C[C@H](O)C[C@H]1C(=O)N[C@@H]([C@@H](C)[C@@H](O)CO)C(=O)N2", "note": "[α-amanitin]", "values": [{"measurement": "inhibitory effect on transcription (PCR product on gel)", "setting": "RNA polymerase II [3]; linear CMV-EGFP template, 400, 100 and 20 μM, Figure 2B", "result": "gradually increasing inhibitory effects"}, {"measurement": "amount of PCR product after transcription", "setting": "RNA polymerase II [3]; pEGFP-N1 plasmid template, 100 μM, Figure 2A", "result": "clearly diminished amount of PCR product"}, {"measurement": "inhibitory effect, short incubation vs standard (times lower)", "setting": "RNA polymerase II [1]; 10 min, HS-DNA_long vs 30 min, standard template", "result": "ca. 10 ×"}, {"measurement": "inhibition of transcription efficacy", "setting": "RNA polymerase II [4]; 200 nM, both templates (standard HS-DNA and TATA box mutant)", "result": "88 ± 1", "unit": "%"}, {"measurement": "% RNA synthesis (compared to respective positive control)", "setting": "RNA polymerase II [4]; [6]", "result": "12% ± 1%"}, {"measurement": "Signal (RLU average)", "setting": "RNA polymerase II [4]; [6]", "result": 130255, "unit": "RLU"}, {"measurement": "% RNA synthesis (compared to respective positive control)", "setting": "RNA polymerase II [4]; 200 nM, template HS-DNA_std", "result": "12% ± 1%"}, {"measurement": "Signal (RLU average)", "setting": "RNA polymerase II [4]; 200 nM, template HS-DNA_std", "result": 161585, "unit": "RLU"}, {"measurement": "IC50", "setting": "RNA polymerase II [4]; Bead-HS-DNA template, Figure 5C", "result": 5700, "unit": "nM"}, {"measurement": "IC50", "setting": "RNA polymerase II [4]; HS-DNA_long template, 10 min at 30°C, Figure 6C", "result": 54, "unit": "nM"}, {"measurement": "IC50", "setting": "RNA polymerase II [4]; standard HS-DNA template, 30 min at 30°C, Figure 6A", "result": 4, "unit": "nM"}, {"measurement": "qPCR C(T) value of inhibited transcription", "setting": "RNA polymerase II [5]; linear CMV-EGFP template, 2 μM, uninhibited C(T) 16.1, Figure 3B", "result": 24.5}, {"measurement": "qPCR C(T) value of inhibited transcription", "setting": "RNA polymerase II [5]; linear CMV-EGFP template, 20 μM, uninhibited C(T) 16.1, Figure 3B", "result": 28.1}, {"measurement": "qPCR C(T) value of inhibited transcription", "setting": "RNA polymerase II [5]; linear CMV-EGFP template, 50 μM, uninhibited C(T) 16.1, Figure 3B", "result": 37.0}, {"measurement": "qPCR C(T) value of inhibited transcription", "setting": "RNA polymerase II [5]; linear CMV-EGFP template, 100 μM, uninhibited C(T) 16.1, Figure 3B, C", "result": 27.9}, {"measurement": "qPCR C(T) value of inhibited transcription", "setting": "RNA polymerase II [5]; pEGFP-N1 plasmid template, 100 μM, uninhibited C(T) 17.6 / 18.0, Figure 3A, C", "result": 21.7}]}
